Experimental data as given in patent publication US6410054B1, “Immediate release eplerenone compositions” (G. D. Searle & Co., priority 1998, dated 2002).

Assay: Single dose study: urinary excretion of eplerenone and open lactone ring form
Format: in vivo, humans
Protocol: The study employed seven parallel dose groups of eight healthy male humans.
The plasma samples collected from subjects dosed with eplerenone were assayed for concentrations of eplerenone and the open lactone ring form of eplerenone. […] A subset of plasma samples was also assayed for testosterone levels. The urine collected was analyzed to determine concentrations and amounts of eplerenone and the open lactone ring form of eplerenone, the amount of sodium and potassium excreted, and the urinary log10 (sodium/potassium) ratio.

For COC(=O)C1CC2=CC(=O)CCC2(C)C23OC2CC2(C)C(CC[C@@]24CCC(=O)O4)C13 (stereo partly drawn) [eplerenone, methyl hydrogen 9,11α-epoxy-17α-hydroxy-3-oxopregn-4-ene-7α,21-dicarboxylate, γ-lactone], the “Amount of Eplerenone Excreted in Urine” value (10 mg dose, 0 to 2 hours) was “(21.6) mcg”, the “Concentration of Eplerenone Excreted in Urine” value (shortened to “Concentration”) (10 mg dose, 0 to 2 hours) was 278.0 ng/mL and the “Amount of Eplerenone Excreted in Urine” value (10 mg dose, 0 to 24 hours) was “(78.8) mcg”. The “Amount of Eplerenone Excreted in Urine” value (10 mg dose, 2 to 4 hours) was “(35.8) mcg”, the “Concentration” value (10 mg dose, 2 to 4 hours) was 191.1 ng/mL and the “Amount of Eplerenone Excreted in Urine” value (10 mg dose, 4 to 6 hours) was “(16.5) mcg”. The “Concentration” value (10 mg dose, 4 to 6 hours) was 107.2 ng/mL, the “Amount of Eplerenone Excreted in Urine” value (10 mg dose, 6 to 8 hours) was “(7.6) mcg” and the “Concentration” value (10 mg dose, 6 to 8 hours) was 63.8 ng/mL. For the same molecule, the “Amount of Eplerenone Excreted in Urine” value (10 mg dose, 8 to 10 hours) was “(0) mcg”, the “Concentration” value (10 mg dose, 8 to 10 hours) was 0 ng/mL and the “Amount of Eplerenone Excreted in Urine” value (10 mg dose, 10 to 12 hours) was “(0) mcg”. For the same molecule, the “Concentration” value (10 mg dose, 10 to 12 hours) was 0 ng/mL, the “Amount of Eplerenone Excreted in Urine” value (10 mg dose, 12 to 14 hours) was “(0) mcg” and the “Concentration” value (10 mg dose, 12 to 14 hours) was 0 ng/mL. The “Amount of Eplerenone Excreted in Urine” value (10 mg dose, 14 to 16 hours) was “(0) mcg”, the “Concentration” value (10 mg dose, 14 to 16 hours) was 0 ng/mL and the “Amount of Eplerenone Excreted in Urine” value (10 mg dose, 16 to 24 hours) was “(0) mcg”. The “Concentration” value (10 mg dose, 16 to 24 hours) was 0 ng/mL, the “Amount of Eplerenone Excreted in Urine” value (10 mg dose, −9 to 0 hours) was “(0) mcg” and the “Concentration” value (10 mg dose, −9 to 0 hours) was 0 ng/mL. The “Amount of Eplerenone Excreted in Urine” value (50 mg dose, 0 to 2 hours) was “(99.2) mcg”, the “Concentration” value (50 mg dose, 0 to 2 hours) was 1252.2 ng/mL and the “Amount of Eplerenone Excreted in Urine” value (50 mg dose, 0 to 24 hours) was “(410.6) mcg”. The “Amount of Eplerenone Excreted in Urine” value (50 mg dose, 2 to 4 hours) was “(175.3) mcg”, the “Concentration” value (50 mg dose, 2 to 4 hours) was 1064.6 ng/mL and the “Amount of Eplerenone Excreted in Urine” value (50 mg dose, 4 to 6 hours) was “(60.6) mcg”. For the same molecule, the “Concentration” value (50 mg dose, 4 to 6 hours) was 518.3 ng/mL, the “Amount of Eplerenone Excreted in Urine” value (50 mg dose, 6 to 8 hours) was “(30.7) mcg” and the “Concentration” value (50 mg dose, 6 to 8 hours) was 307.3 ng/mL. The “Amount of Eplerenone Excreted in Urine” value (50 mg dose, 8 to 10 hours) was “(27.6) mcg”, the “Concentration” value (50 mg dose, 8 to 10 hours) was 172.4 ng/mL and the “Amount of Eplerenone Excreted in Urine” value (50 mg dose, 10 to 12 hours) was “(16.5) mcg”. For the same molecule, the “Concentration” value (50 mg dose, 10 to 12 hours) was 72.7 ng/mL, the “Amount of Eplerenone Excreted in Urine” value (50 mg dose, 12 to 14 hours) was “(11.3) mcg” and the “Concentration” value (50 mg dose, 12 to 14 hours) was 23.1 ng/mL. For the same molecule, the “Amount of Eplerenone Excreted in Urine” value (50 mg dose, 14 to 16 hours) was “(1.5) mcg”, the “Concentration” value (50 mg dose, 14 to 16 hours) was 21.6 ng/mL and the “Amount of Eplerenone Excreted in Urine” value (50 mg dose, 16 to 24 hours) was “(4.0) mcg”. The “Concentration” value (50 mg dose, 16 to 24 hours) was 13.1 ng/mL, the “Amount of Eplerenone Excreted in Urine” value (50 mg dose, −9 to 0 hours) was “(0) mcg” and the “Concentration” value (50 mg dose, −9 to 0 hours) was 0 ng/mL. For the same molecule, the “Amount of Eplerenone Excreted in Urine” value (100 mg dose, 0 to 2 hours) was “(360.2) mcg”, the “Concentration” value (100 mg dose, 0 to 2 hours) was 2623.3 ng/mL and the “Amount of Eplerenone Excreted in Urine” value (100 mg dose, 0 to 24 hours) was “(1271.4) mcg”. The “Amount of Eplerenone Excreted in Urine” value (100 mg dose, 2 to 4 hours) was “(407.6) mcg”, the “Concentration” value (100 mg dose, 2 to 4 hours) was 2305.6 ng/mL and the “Amount of Eplerenone Excreted in Urine” value (100 mg dose, 4 to 6 hours) was “(285.1) mcg”. For the same molecule, the “Concentration” value (100 mg dose, 4 to 6 hours) was 1157.3 ng/mL, the “Amount of Eplerenone Excreted in Urine” value (100 mg dose, 6 to 8 hours) was “(158.8) mcg” and the “Concentration” value (100 mg dose, 6 to 8 hours) was 627.6 ng/mL. The “Amount of Eplerenone Excreted in Urine” value (100 mg dose, 8 to 10 hours) was “(69.1) mcg”, the “Concentration” value (100 mg dose, 8 to 10 hours) was 362.9 ng/mL and the “Amount of Eplerenone Excreted in Urine” value (100 mg dose, 10 to 12 hours) was “(44.7) mcg”. The “Concentration” value (100 mg dose, 10 to 12 hours) was 146.6 ng/mL.
